Measurements from ChEMBL document CHEMBL1122862, “Synthesis and antibacterial activity of 2,2'-dithiobis(benzamide) derivatives against Mycobacterium species” (1985).
Values after ≈ are worked out from the molar mass of the structure shown.

Tests used:
Type in all cases: functional
[1] = system: Mycobacterium tuberculosis; assay: Tested for antibacterial activity against Mycobacterium tuberculosis H37Rv kanamycin resistant strain
[2] = system: Mycobacterium tuberculosis; assay: Tested for antibacterial activity against Mycobacterium tuberculosis H37Rv streptomycin resistant strain
[3] = system: Mycobacterium tuberculosis; assay: Tested for antibacterial activity against Mycobacterium tuberculosis H37Rv isonicotinic acid hydrazide-resistant strain

SMILES | MIC [1] [µg/mL] | MIC [2] [µg/mL] | MIC [3] [µg/mL]
O=C1c2ccccc2S(=O)(=O)N1CO | > 100 | 100 (≈ 469 µM) | > 100
O=C(Nc1cccc(C(F)(F)F)c1)c1ccccc1SSc1ccccc1C(=O)Nc1cccc(C(F)(F)F)c1 | 6.25 (≈ 10.5 µM) | 3.13 (≈ 5.28 µM) | 3.13 (≈ 5.28 µM)
CCCC(=O)OCCCNC(=O)c1ccccc1SSc1ccccc1C(=O)NCCCOC(=O)CCC | 6.25 (≈ 11.1 µM) | 6.25 (≈ 11.1 µM) | 3.13 (≈ 5.58 µM)
O=c1c2ccccc2sn1CCO | 12.5 (≈ 64 µM) | 12.5 (≈ 64 µM) | 12.5 (≈ 64 µM)
CCCCCCCC(=O)OCCCNC(=O)c1ccccc1SSc1ccccc1C(=O)NCCCOC(=O)CCCCCCC | 0.39 (≈ 0.58 µM) | 0.78 (≈ 1.16 µM) | 0.39 (≈ 0.58 µM)
CC[C@@H](CO)NCCN[C@@H](CC)CO [ETHAMBUTOL] | 1.56 (≈ 7.64 µM) | 0.78 (≈ 3.82 µM) | 0.78 (≈ 3.82 µM)
CCCCCCCCCCCCCCCCCCCC(=O)OCCCNC(=O)c1ccccc1SSc1ccccc1C(=O)NCCCOC(=O)CCCCCCCCCCCCCCCCCCC | > 100 | > 100 | > 100
O=C(Nc1ccc(Cl)c2ccccc12)c1ccccc1SSc1ccccc1C(=O)Nc1ccc(Cl)c2ccccc12 | 12.5 (≈ 20 µM) | 12.5 (≈ 20 µM) | 12.5 (≈ 20 µM)
NNC(=O)c1ccncc1 [ISONIAZID] | 0.05 (≈ 0.365 µM) | 0.05 (≈ 0.365 µM) | 100 (≈ 729 µM)
CC(C)(CO)NC(=O)c1ccccc1SSc1ccccc1C(=O)NC(C)(C)CO | 12.5 (≈ 27.9 µM) | 12.5 (≈ 27.9 µM) | 6.25 (≈ 13.9 µM)
CCOc1ccc2nc(NC(=O)c3ccccc3SSc3ccccc3C(=O)Nc3nc4ccc(OCC)cc4s3)sc2c1 | > 100 | > 100 | > 100
CCC(O)CNC(=O)c1ccccc1SSc1ccccc1C(=O)NCC(O)CC (centres undefined) | 12.5 (≈ 27.9 µM) | 12.5 (≈ 27.9 µM) | 12.5 (≈ 27.9 µM)
CCC(CO)NC(=O)c1ccccc1SSc1ccccc1C(=O)NC(CC)CO (centres undefined) | 12.5 (≈ 27.9 µM) | 12.5 (≈ 27.9 µM) | 12.5 (≈ 27.9 µM)
CCc1cc(CC)cc(NC(=O)c2ccccc2SSc2ccccc2C(=O)Nc2cc(CC)cc(CC)c2)c1 | > 100 | > 100 | > 100
CCCCCC(=O)OCCCNC(=O)c1ccccc1SSc1ccccc1C(=O)NCCCOC(=O)CCCCC | 3.13 (≈ 5.07 µM) | 3.13 (≈ 5.07 µM) | 3.13 (≈ 5.07 µM)
O=C(Nc1ccc(S(=O)(=O)Nc2nc3ccccc3s2)cc1)c1ccccc1SSc1ccccc1C(=O)Nc1ccc(S(=O)(=O)Nc2nc3ccccc3s2)cc1 | 50 (≈ 56.7 µM) | 100 (≈ 113 µM) | 100 (≈ 113 µM)
NC[C@H]1O[C@H](O[C@H]2[C@H](O)[C@@H](O[C@H]3O[C@H](CO)[C@@H](O)[C@H](N)[C@H]3O)[C@H](N)C[C@@H]2N)[C@H](O)[C@@H](O)[C@@H]1O [KANAMYCIN] | > 100 | 6.25 (≈ 12.9 µM) | 6.25 (≈ 12.9 µM)
CN[C@@H]1[C@H](O[C@H]2[C@H](O[C@H]3[C@H](O)[C@@H](O)[C@H](N=C(N)N)[C@@H](O)[C@@H]3N=C(N)N)O[C@@H](C)[C@]2(O)C=O)O[C@@H](CO)[C@H](O[C@@H]2O[C@H](CO)[C@@H](O)[C@H](O)[C@@H]2O)[C@H]1O | 3.13 (≈ 4.21 µM) | > 100 | 0.78 (≈ 1.05 µM)
CC(O)CNC(=O)c1ccc(SSc2ccc(C(=O)NCC(C)O)cc2)cc1 (centres undefined) | > 100 | > 100 | > 100
O=C(Nc1cccc2cccnc12)c1ccccc1SSc1ccccc1C(=O)Nc1cccc2cccnc12 | 50 (≈ 89.5 µM) | 50 (≈ 89.5 µM) | 12.5 (≈ 22.4 µM)
CCOC(=O)c1ccc(NC(=O)c2ccccc2SSc2ccccc2C(=O)Nc2ccc(C(=O)OCC)cc2)cc1 | 6.25 (≈ 10.4 µM) | 3.13 (≈ 5.21 µM) | 3.13 (≈ 5.21 µM)
CCCCCCCCCCNC(=O)c1ccccc1SSc1ccccc1C(=O)NCCCCCCCCCC | 6.25 (≈ 10.7 µM) | 3.13 (≈ 5.35 µM) | 3.13 (≈ 5.35 µM)
O=C(NCc1cccc2ccccc12)c1ccccc1SSc1ccccc1C(=O)NCc1cccc2ccccc12 | > 100 | > 100 | > 100
O=c1c2ccccc2sn1CO | 12.5 (≈ 69 µM) | 12.5 (≈ 69 µM) | 6.25 (≈ 34.5 µM)

SMILES | MIC [1] [µg/mL] | MIC [2] [µg/mL] | MIC [3] [µg/mL]
O=C(Nc1ccc(Br)c2ccccc12)c1ccccc1SSc1ccccc1C(=O)Nc1ccc(Br)c2ccccc12 | 12.5 (≈ 17.5 µM) | 12.5 (≈ 17.5 µM) | 12.5 (≈ 17.5 µM)
O=C(Nc1cc2ccccc2cc1O)c1ccccc1SSc1ccccc1C(=O)Nc1cc2ccccc2cc1O | 6.25 (≈ 10.6 µM) | 12.5 (≈ 21.2 µM) | 12.5 (≈ 21.2 µM)
O=C(NCC(O)c1ccc(O)c(O)c1)c1ccccc1SSc1ccccc1C(=O)NCC(O)c1ccc(O)c(O)c1 (centres undefined) | 100 (≈ 164 µM) | > 100 | 100 (≈ 164 µM)
CCOC(=O)CNC(=O)c1ccccc1SSc1ccccc1C(=O)NCC(=O)OCC | 25 (≈ 52.5 µM) | 12.5 (≈ 26.2 µM) | 12.5 (≈ 26.2 µM)
O=C(NCc1ccco1)c1ccccc1SSc1ccccc1C(=O)NCc1ccco1 | 12.5 (≈ 26.9 µM) | 12.5 (≈ 26.9 µM) | 12.5 (≈ 26.9 µM)
CC(=O)OCCCNC(=O)c1ccccc1SSc1ccccc1C(=O)NCCCOC(C)=O | 12.5 (≈ 24.8 µM) | 12.5 (≈ 24.8 µM) | 6.25 (≈ 12.4 µM)
O=C(c1ccccc1SSc1ccccc1C(=O)N1C(=O)c2ccccc2C1=O)N1C(=O)c2ccccc2C1=O | > 100 | > 100 | > 100
CCCCCCCCCC(=O)OCCCNC(=O)c1ccccc1SSc1ccccc1C(=O)NCCCOC(=O)CCCCCCCCC | 0.39 (≈ 0.535 µM) | 0.78 (≈ 1.07 µM) | 0.39 (≈ 0.535 µM)
CCNC(=O)OCCNC(=O)c1ccccc1SSc1ccccc1C(=O)NCCOC(=O)NCC | 25 (≈ 46.8 µM) | 25 (≈ 46.8 µM) | 25 (≈ 46.8 µM)
NC(=O)c1ccccc1SSc1ccccc1C(N)=O | 6.25 (≈ 20.5 µM) | 6.25 (≈ 20.5 µM) | 6.25 (≈ 20.5 µM)
CN1CCCN(C(=O)c2ccccc2SSc2ccccc2C(=O)N2CCCN(C)CC2)CC1 | > 100 | > 100 | > 100
CCCCCCC(=O)OCCCNC(=O)c1ccccc1SSc1ccccc1C(=O)NCCCOC(=O)CCCCCC | 1.56 (≈ 2.42 µM) | 1.56 (≈ 2.42 µM) | 1.56 (≈ 2.42 µM)
CCCCc1ccc(NC(=O)c2ccccc2SSc2ccccc2C(=O)Nc2ccc(CCCC)cc2)cc1 | 1.56 (≈ 2.74 µM) | 1.56 (≈ 2.74 µM) | 0.78 (≈ 1.37 µM)
O=C(c1ccccc1SSc1ccccc1C(=O)n1nnc2ccccc21)n1nnc2ccccc21 | > 100 | > 100 | > 100
O=C(O)Cc1ccc(NC(=O)c2ccccc2SSc2ccccc2C(=O)Nc2ccc(CC(=O)O)cc2)cc1 | 100 (≈ 175 µM) | 100 (≈ 175 µM) | 100 (≈ 175 µM)
CCCCC(CC)CNC(=O)c1ccccc1SSc1ccccc1C(=O)NCC(CC)CCCC (centres undefined) | 1.56 (≈ 2.95 µM) | 1.56 (≈ 2.95 µM) | 1.56 (≈ 2.95 µM)
CO[C@H]1/C=C/O[C@@]2(C)Oc3c(C)c(O)c4c(O)c(c(/C=N/N5CCN(C)CC5)c(O)c4c3C2=O)NC(=O)/C(C)=C\C=C\[C@H](C)[C@H](O)[C@@H](C)[C@@H](O)[C@@H](C)[C@H](OC(C)=O)[C@@H]1C [RIFAMPIN] | 0.05 (≈ 0.0608 µM) | 0.025 (≈ 0.0304 µM) | 0.025 (≈ 0.0304 µM)
O=C(Nc1ccc2ccccc2c1)c1ccccc1SSc1ccccc1C(=O)Nc1ccc2ccccc2c1 | 1.56 (≈ 2.8 µM) | 1.56 (≈ 2.8 µM) | 1.56 (≈ 2.8 µM)
CCCCCCCCCCCC(=O)OCCNC(=O)c1ccccc1SSc1ccccc1C(=O)NCCOC(=O)CCCCCCCCCCC | 3.13 (≈ 4.13 µM) | 3.13 (≈ 4.13 µM) | 3.13 (≈ 4.13 µM)
O=C(Nc1c([N+](=O)[O-])ccc2ccccc12)c1ccccc1SSc1ccccc1C(=O)Nc1c([N+](=O)[O-])ccc2ccccc12 | 50 (≈ 77.3 µM) | 50 (≈ 77.3 µM) | 50 (≈ 77.3 µM)
O=C(Nc1cccc2ccc(O)cc12)c1ccccc1SSc1ccccc1C(=O)Nc1cccc2ccc(O)cc12 | 50 (≈ 84.9 µM) | 50 (≈ 84.9 µM) | 12.5 (≈ 21.2 µM)
CC(O)Cn1sc2ccccc2c1=O (centres undefined) | 12.5 (≈ 59.7 µM) | 12.5 (≈ 59.7 µM) | 12.5 (≈ 59.7 µM)
CCCCCCCCCCCC(=O)OCCCNC(=O)c1ccccc1SSc1ccccc1C(=O)NCCCOC(=O)CCCCCCCCCCC | 0.78 (≈ 0.993 µM) | 0.78 (≈ 0.993 µM) | 0.78 (≈ 0.993 µM)
CCn1c2ccccc2c2cc(NC(=O)c3ccccc3SSc3ccccc3C(=O)Nc3ccc4c(c3)c3ccccc3n4CC)ccc21 | 3.13 (≈ 4.53 µM) | 1.56 (≈ 2.26 µM) | 1.56 (≈ 2.26 µM)
